According to US12240855B2, “Pyrrolopyrazole derivative” (DAIICHI SANKYO COMPANY, LIMITED, priority 2019, dated 2025):

Tests used:
HCT116 cells = assay: cells; conditions: Homo sapiens, HCT-116, 72 h, read-out: Test Example 3 HCT116 GI50
Description: (§1) McCoy's 5A medium containing 10% bovine serum was used as the culture medium for each cell. […] They were added to each well of 384-well plates at 40 nL/well using an Echo555 (Labcyte Inc.). […] On the day of compound addition (day 0) and 3 days after compound addition (day 3), 10 μL/well of CellTiter-Glo® 2.0 Assay (Promega, #G9242), which is a reagent for ATP measurement, was added to each well, and the amount of luminescence in each well was measured with EnVision. From the amount of luminescence on the day of compound addition (C0) and the amount of luminescence of the compound non-addition group (C3) and compound addition group (T3) after 3 days of culture, cell viability was calculated based on the following formula. Cell viability (%)=[(T3−C0)/(C3−C0)]×100

[1] = tested on: PTDSS2 gene-disrupted (PTDSS2-KO) HCT116 cells; assay: cells; conditions: Homo sapiens, HCT-116, 72 h, read-out: Test Example 3 PTDSS2-KO HCT116 GI50
Description: as §1

PSS1 = PSS1 (Homo sapiens, UniProt P48651); assay: biochemical
[2] = tested on: PTDSS2-KO HCT116 cell-subcutaneous transplanted model; assay: Test Example 4: Antitumor activity on PTDSS2-KO HCT116 cell-subcutaneous transplanted model; type: in vivo, female BALB/c-nu/nu mice; conditions: oral
Excerpt: HCT116 cell-subcutaneous transplanted model PTDSS2-KO HCT116 cells were transplanted to a right subcutaneous axillary portion of female BALB/c-nu/nu mice at a proportion of 1×10^7 cells/head, and when the tumor volume reached 100 to 300 mm^3 (estimated tumor volume (major axis×minor axis×minor axis/2)), mice were divided into groups of 6 or 5 mice each such that there was no difference between groups. The female BALB/c-nu/nu mice were purchased from CHARLES RIVER LABORATORIES JAPAN, INC. The compounds of Examples 58, 57, 53, 30, 42, 32, 34, 33, and 31 were orally administered from the day of grouping in the dosing schedule shown in Table 12 (twice daily, 11 successive days (BID×11), or once daily, 13 successive days (QD×13)). The tumor volume was measured until the next day of completion of the administration (test end date). 0.5% methylcellulose (MC) was administered to the vehicle control group as the vehicle.
TGI %=(1−TVt/TVc)×100 • TGI: Tumor growth suppression rate • TVt: Group mean tumor volume of compound administration group on test end date • TVc: Group mean tumor volume of vehicle control group on test end date

Jeko-1 cells = assay: Test Example 7: Cell growth suppression activity 4 (Jeko-1); type: cell-based; conditions: 72 h; Jeko-1 cells derived from human mantle cell lymphoma, 3 days of culture, ATP measurement (CellTiter-Glo 2.0)
Description: Jeko-1 cells derived from human mantle cell lymphoma were used. […] Jeko-1 cells were purchased from ATCC. Jeko-1 cells were seeded into 96 well plates at 50,000 cells/50 μL/well (day 0). The compound of Example 42 was serially diluted and prepared (10 steps, 30 μM-3 nM) and added to each well of 96 well plates at 50 μL/well. […] Cell viability (%)=[(T3−C0)/(C3−C0)]×100

NCI-N87 cells = assay: Test Example 5: Cell growth suppression activity 2 (NCI-N87); type: cell-based; conditions: 168 h; NCI-N87 cells derived from human stomach cancer, 7 days of culture, ATP measurement (CellTiter-Glo 2.0)
Description: NCI-N87 derived from human stomach cancer was used. […] NCI-N87 cells were purchased from ATCC. NCI-N87 cells were seeded into 96 well plates at 5,000 cells/50 μL/well (day −1). The compound of Example 42 was serially diluted and prepared (10 steps, 20 μM-6 nM) and added to each well of 96 well plates at 50 μL/well. […] Cell viability (%)=[(T7−C0)/(C7−C0)]×100

[3] = tested on: PTDSS2-KO A375 cell-subcutaneous transplanted model; assay: Test Example 8: Antitumor activity on PTDSS2-KO A375 cell-subcutaneous transplanted model; type: in vivo, female BALB/c-nu/nu mice; conditions: orally, once daily for 10 successive days (QD×10), test end date
Excerpt: PTDSS2-KO A375 cells were transplanted to a right subcutaneous axillary portion of female BALB/c-nu/nu mice at a proportion of 1×10^6 cells/head, and when the tumor volume reached 100 to 300 mm^3 (estimated tumor volume (major axis×minor axis×minor axis/2)), mice were divided into groups of 6 each such that there was no difference between groups. The female BALB/c-nu/nu mice were purchased from CHARLES RIVER LABORATORIES JAPAN, INC. The compound of Example 42 was orally administered from the day of grouping, once daily for 10 successive days (QD×10). The tumor volume was measured until the next day of completion of the administration (test end date). 0.5% methylcellulose (MC) was administered to the vehicle control group as the vehicle.
The antitumor activity on PTDSS2-KO A375 cell-subcutaneous transplanted model of Test Example 8 was calculated by the following formula on each test end date. TGI %=(1−TVt/TVc)×100 • TGI: Tumor growth suppression rate • TVt: Group mean tumor volume of compound administration group on test end date • TVc: Group mean tumor volume of vehicle control group on test end date

ZR-75-1 cells = assay: Test Example 6: Cell growth suppression activity 3 (ZR-75-1); type: cell-based; conditions: 144 h; ZR-75-1 cells derived from human breast cancer, 6 days of culture, ATP measurement (CellTiter-Glo 2.0)
Description: ZR-75-1 cells derived from human breast cancer were used. […] ZR-75-1 cells were purchased from ATCC. ZR-75-1 cells were seeded into 96 well plates at 5,000 cells/50 μL/well (day −1). The compound of Example 42 was serially diluted and prepared (10 steps, 20 μM-6 nM) and added to each well of 96 well plates at 50 μL/well. […] Cell viability (%)=[(T6−C0)/(C6−C0)]×100

[4] = 10 mg/kg, QD × 13, test end date
[5] = 20 mg/kg, QD × 13, test end date
[6] = 40 mg/kg, QD × 13, test end date

Q: How did the GI50 (HCT116 cells) turn out when `O=C1c2[nH]nc(-c3cccc4[nH]c(=O)oc34)c2C(c2ccc(F)cc2)N1CC(F)(F)F` (single isomer, unassigned) [Example 8, 7-[4-(4-Fluorophenyl)-6-oxo-5-(2,2,2-trifluoroethyl)-1,4,5,6-tetrahydropyrrolo[3,4-c]pyrazol-3-yl]-1,3-benzoxazol-2(3H)-one (enantiomer)] was run?
A: > 25000 nM

Q: And the GI50 [1]?
A: 1100 nM

Q: `CC(F)(F)CN1C(=O)c2[nH]nc(-c3cccc4[nH]c(=O)oc34)c2C1c1ccc(Oc2cc(C(F)(F)F)cc(C(F)(F)F)c2)cc1` (single isomer, unassigned; (+)) [(+)-7-[4-{4-[3,5-bis(trifluoromethyl)phenoxy]phenyl}-5-(2,2-difluoropropyl)-6-oxo-1,4,5,6-tetrahydropyrrolo[3,4-c]pyrazol-3-yl]-1,3-benzoxazol-2(3H)-one] was tested. Which IC50 (PSS1) did it give?
A: > 5000 nM

Q: What does the source list for `CC(F)(F)CN1C(=O)c2[nH]nc(-c3cccc4[nH]c(=O)oc34)c2C1c1ccc(Oc2ccc(OC(F)(F)F)c(C(F)(F)F)c2)cc1` (single isomer, unassigned; (-)) [Example 33, (−)-7-[5-(2,2-difluoropropyl)-6-oxo-4-{4-[4-(trifluoromethoxy)-3-(trifluoromethyl)phenoxy]phenyl}-1,4,5,6-tetrahydropyrrolo[3,4-c]pyrazol-3-yl]-1,3-benzoxazol-2(3H)-one]?
A: TGI (%) [2, 4]: 97%; TGI (%) [2, 5]: 98%; TGI (%) [2, 6]: 98%; GI50 [1]: 14 nM

Q: With `CC(F)(F)CN1C(=O)c2[nH]nc(-c3cccc4[nH]c(=O)oc34)c2C1c1ccc(Oc2ccc(Cl)cc2)cc1` (single isomer, unassigned; (-)) [Example 57, (−)-7-{4-[4-(4-Chlorophenoxy)phenyl]-5-(2,2-difluoropropyl)-6-oxo-1,4,5,6-tetrahydropyrrolo[3,4-c]pyrazol-3-yl}-1,3-benzoxazol-2(3H)-one] as the molecule, how does the “TGI (%)” value ([2]; 50 mg/kg, BID × 11, test end date) read?
A: 89%

Q: What about the “TGI (%)” value ([2]; 100 mg/kg, BID × 11, test end date) of the same molecule?
A: 97%

Q: Which “TGI (%)” value ([2]; 200 mg/kg, BID × 11, test end date) does the source give for `CC(F)(F)CN1C(=O)c2[nH]nc(-c3cccc4[nH]c(=O)oc34)c2C1c1ccc(Oc2ccc(Cl)cc2)cc1F` (single isomer, unassigned; (-)) [Example 58, (−)-7-{4-[4-(4-Chlorophenoxy)-2-fluorophenyl]-5-(2,2-difluoropropyl)-6-oxo-1,4,5,6-tetrahydropyrrolo[3,4-c]pyrazol-3-yl}-1,3-benzoxazol-2(3H)-one] here?
A: 87%

Q: How did the GI50 (HCT116 cells) turn out when `O=C1c2[nH]nc(-c3cccc4[nH]c(=O)oc34)c2C(c2cc(OC3CCOCC3)ccc2F)N1CC(F)(F)F` (stereo not shown) [Example 9, 7-[4-{2-Fluoro-5-[(oxan-4-yl)oxy]phenyl}-6-oxo-5-(2,2,2-trifluoroethyl)-1,4,5,6-tetrahydropyrrolo[3,4-c]pyrazol-3-yl]-1,3-benzoxazol-2(3H)-one] was run?
A: > 25000 nM

Q: And the GI50 [1]?
A: 700 nM

Q: How did the GI50 (HCT116 cells) turn out when `O=C1c2[nH]nc(-c3cccc4[nH]c(=O)oc34)c2C(c2cc(Oc3ccccc3)ccc2F)N1Cc1ccccn1` (stereo not shown) [Example 13, 7-{4-(2-Fluoro-5-phenoxyphenyl)-6-oxo-5-[(pyridin-2-yl)methyl]-1,4,5,6-tetrahydropyrrolo[3,4-c]pyrazol-3-yl}-1,3-benzoxazol-2(3H)-one] was run?
A: > 25000 nM

Q: What about the GI50 [1] of the same molecule?
A: 820 nM

Q: For `CC(F)(F)CN1C(=O)c2[nH]nc(-c3cccc4[nH]c(=O)oc34)c2[C@@H]1c1ccc(Oc2cc(C(F)(F)F)cc(C(F)(F)F)c2)cc1` [Example 42, (−)-7-[4-{4-[3,5-bis(trifluoromethyl)phenoxy]phenyl}-5-(2,2-difluoropropyl)-6-oxo-1,4,5,6-tetrahydropyrrolo[3,4-c]pyrazol-3-yl]-1,3-benzoxazol-2(3H)-one], which GI50 (Jeko-1 cells) is on record?
A: 417 nM

Q: And the GI50 (NCI-N87 cells)?
A: 7.4 nM

Q: And the “TGI (%)” value [2, 4]?
A: 97%

Q: And the “TGI (%)” value [2, 5]?
A: 98%

Q: And the “TGI (%)” value [2, 6]?
A: 99%

Q: What about the GI50 (HCT116 cells) of the same molecule?
A: > 25000 nM

Q: And the “TGI (%)” value ([3]; Dose 3 mg/kg)?
A: 47%

Q: What about the “TGI (%)” value ([3]; Dose 10 mg/kg) of the same molecule?
A: 100%

Q: And the “TGI (%)” value ([3]; Dose 30 mg/kg)?
A: 100%

Q: What about the “TGI (%)” value ([3]; Dose 100 mg/kg) of the same molecule?
A: 100%

Q: And the GI50 (ZR-75-1 cells)?
A: 2900 nM

Q: And the IC50 (PSS1)?
A: 200 nM

Q: And the GI50 [1]?
A: 14 nM

Q: How did the GI50 (HCT116 cells) turn out when `CC(F)(F)CN1C(=O)c2[nH]nc(-c3cccc4[nH]c(=O)oc34)c2C1c1ccnc(Oc2ccc(F)cc2)n1` (stereo not shown) [Example 73, 7-{5-(2,2-Difluoropropyl)-4-[2-(4-fluorophenoxy)pyrimidine-4-yl]-6-oxo-1,4,5,6-tetrahydropyrrolo[3,4-c]pyrazol-3-yl}-1,3-benzoxazol-2(3H)-one] was run?
A: 19000 nM

Q: What about the GI50 [1] of the same molecule?
A: 890 nM

Q: How did the GI50 (HCT116 cells) turn out when `CC(F)(F)CN1C(=O)c2[nH]nc(-c3cccc4[nH]c(=O)sc34)c2C1c1ccc(Oc2ccc(OC(F)(F)F)cc2)cc1` (stereo not shown) [Example 95, 7-[5-(2,2-Difluoropropyl)-6-oxo-4-{4-[4-(trifluoromethoxy)phenoxy]phenyl}-1,4,5,6-tetrahydropyrrolo[3,4-c]pyrazol-3-yl]-1,3-benzothiazol-2(3H)-one] was run?
A: 7300 nM

Q: What about the GI50 [1] of the same molecule?
A: 6400 nM
